Assay results taken from publication PMC5622936, “Novel Carbonyl Analogs of Tamoxifen: Design, Synthesis, and Biological Evaluation” (Frontiers in Chemistry, 2017).

Experiments:
ERα = biological target: T1, ERα (Homo sapiens, UniProt P03372); assay: fluorescence polarization competition, displacement of fluorescent estrogen ES2 (Beacon […]); type: binding; conditions: 1 nM ES2 tracer, relative to estradiol = 100
T1 construct: gene ESR1; isolated recombinant human ERα (Invitrogen)
T1 sequence (P03372 1-595): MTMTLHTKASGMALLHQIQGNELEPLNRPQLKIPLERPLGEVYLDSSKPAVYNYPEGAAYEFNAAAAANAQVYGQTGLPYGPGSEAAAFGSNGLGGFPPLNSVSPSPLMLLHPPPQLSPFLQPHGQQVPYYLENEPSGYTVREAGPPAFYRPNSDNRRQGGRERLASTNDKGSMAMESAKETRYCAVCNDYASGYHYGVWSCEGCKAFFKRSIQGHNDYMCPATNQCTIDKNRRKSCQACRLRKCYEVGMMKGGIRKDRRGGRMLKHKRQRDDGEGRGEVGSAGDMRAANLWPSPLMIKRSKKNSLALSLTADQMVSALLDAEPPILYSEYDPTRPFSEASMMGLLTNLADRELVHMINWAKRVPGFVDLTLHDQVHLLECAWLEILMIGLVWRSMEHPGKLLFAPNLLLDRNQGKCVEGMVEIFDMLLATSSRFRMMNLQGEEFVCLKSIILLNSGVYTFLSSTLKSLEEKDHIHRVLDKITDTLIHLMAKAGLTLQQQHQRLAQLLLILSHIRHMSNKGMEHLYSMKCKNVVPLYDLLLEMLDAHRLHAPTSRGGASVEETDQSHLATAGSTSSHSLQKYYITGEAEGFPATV

ERβ = biological target: T2, ERβ (Homo sapiens, UniProt Q92731); assay: as above; type: binding; conditions: 1 nM ES2 tracer, relative to estradiol = 100
T2 construct: gene ESR2; isolated recombinant human ERβ (Invitrogen)
T2 sequence (Q92731 whole entry): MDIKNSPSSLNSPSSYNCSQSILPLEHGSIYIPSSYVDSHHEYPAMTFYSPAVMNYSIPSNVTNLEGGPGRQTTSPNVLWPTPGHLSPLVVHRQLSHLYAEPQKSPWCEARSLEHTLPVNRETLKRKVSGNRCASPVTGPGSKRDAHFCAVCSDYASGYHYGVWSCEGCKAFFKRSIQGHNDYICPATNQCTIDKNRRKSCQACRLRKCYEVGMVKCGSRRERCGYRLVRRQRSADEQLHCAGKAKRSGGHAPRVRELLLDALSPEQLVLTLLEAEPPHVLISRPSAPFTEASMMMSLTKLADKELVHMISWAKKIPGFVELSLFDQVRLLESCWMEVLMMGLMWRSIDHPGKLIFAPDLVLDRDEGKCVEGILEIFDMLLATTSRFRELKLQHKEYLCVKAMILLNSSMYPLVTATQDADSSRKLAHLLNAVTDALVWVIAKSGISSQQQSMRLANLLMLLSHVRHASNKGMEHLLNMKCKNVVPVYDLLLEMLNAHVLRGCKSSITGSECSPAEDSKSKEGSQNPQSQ

SMILES	RBAα^a (ERα; E/Z isomer tested not stated)	RBAβ^a (ERβ; E/Z isomer tested not stated)	RBAα^a (ERα)	RBAβ^a (ERβ)
CCC(=C(c1ccc(O)cc1)c1ccc(C(=O)O)cc1)c1ccc(O)cc1 (mixture of isomers) [compound 10, 4-[1,2-bis-(4-hydroxy-phenyl)-but-1-enyl]-benzoic acid]	12.2 ± 2.3	16.3 ± 3.9	–	–
CC/C(=C(\c1ccc(O)cc1)c1ccc(C(=O)NCCBr)cc1)c1ccc(O)cc1 [compound 13, (E)-4-[1,2-bis-(4-hydroxy-phenyl)-but-1-enyl]-n-(2-bromo-ethyl)-benzamide]	–	–	17.4 ± 3.0	8.40 ± 2.5
CC/C(=C(\c1ccc(O)cc1)c1ccc(C(=O)NCCCBr)cc1)c1ccc(O)cc1 [compound 14, (E)-4-[1,2-bis-(4-hydroxy-phenyl)-but-1-enyl]-n-(3-bromo-propyl)-benzamide]	–	–	7.94 ± 0.6	6.15 ± 0.6

Results, then the compound that gave them:

RBAα^a (ERα; E/Z isomer tested not stated)	RBAβ^a (ERβ; E/Z isomer tested not stated)	RBAα^a (ERα)	RBAβ^a (ERβ)	SMILES
–	–	8.06 ± 0.9	16.79 ± 1.4	CC/C(=C(\c1ccc(O)cc1)c1ccc(OC(=O)CN2CCOCC2)cc1)c1ccc(O)cc1 [8c, Z-Morpholin-4-yl-acetic acid 4-[1,2-bis-(4-hydroxy-phenyl)-but-1-enyl]-phenyl ester]
–	–	96.37 ± 7.2	82.39 ± 4.9	CC/C(=C(\c1ccc(O)cc1)c1ccc(OC(=O)CBr)cc1)c1ccc(O)cc1 [6b, Z-Bromo-acetic acid 4-[1,2 bis-(4-hydroxy-phenyl)-but-1-enyl]-phenyl ester]
–	–	120.08 ± 8.5	62.14 ± 4.3	CC/C(=C(\c1ccc(O)cc1)c1ccc(OC(=O)CCl)cc1)c1ccc(O)cc1 [6a, Z-Chloro-acetic acid 4-[1,2 bis-(4-hydroxy-phenyl)-but-1-enyl]-phenyl ester]
–	–	101.35 ± 10.2	72.72 ± 2.1	CC/C(=C(\c1ccc(O)cc1)c1ccc(OC(=O)CN(C)C)cc1)c1ccc(O)cc1 [8a, Z-Dimethylamino-acetic acid 4-[1,2-bis-(4-hydroxy-phenyl)-but-1-enyl]-phenyl ester]
–	–	108.12 ± 11.9	77.37 ± 4.5	CC/C(=C(\c1ccc(O)cc1)c1ccc(OC(=O)CN(CC)CC)cc1)c1ccc(O)cc1 [8b, Z-Diethylamino-acetic acid 4-[1,2-bis-(4-hydroxy-phenyl)-but-1-enyl]-phenyl ester]
